{
  "source": "patent US20150182481A1",
  "about": "“USE OF POLYMER D-LACTIC ACID (PDLA) TO TREAT PAIN” (priority 2013, published 2015)",
  "origin": "cited, not measured here",
  "key": {"C fibers": {"test_system": "C fibers", "conditions": "300 mM lactic acid injection"}, "[1]": {"test_system": "nerve poisoned by iodoacetic acid (I.A.A.) and continuously tetanized", "conditions": "I.A.A. solution containing lactate 180 mg/100 cc"}},
  "data": [
    {"smiles": "C[C@@H](O)C(=O)O", "note": "[d-lactic acid]", "values": [
      {"measurement": "plasma d-lactate in asymptomatic exercising subjects", "setting": "asymptomatic exercising subjects", "value": 12, "unit": "mM"},
      {"measurement": "average plasma concentration at which neurotoxic", "setting": "reversible altered mental status, dysarthria, ataxia", "value": 7.98, "unit": "mM"}
    ]},
    {"smiles": "C[C@H](O)C(=O)O", "note": "[lactic acid, L-Lactic acid]", "values": [
      {"measurement": "firing of C fibers", "setting": "C fibers", "value": "increase firing of C fibers"}
    ]},
    {"smiles": "CC(O)C(=O)[O-].[Na+]", "note": "(stereo not shown) [sodium lactate]", "values": [
      {"measurement": "effect on sustained galvanic contractions of the nerve", "setting": "[1]", "value": "enhances repeated nerve tetanization"}
    ]}
  ]
}
